Results from the supplement of paper PMC10307832.

Assays:
Assay in all cases: relative viability (nuclei count vs DMSO), 5 days (fraction); higher = more cells survive
[1] = system: EKVX
Procedure, shortened: (§1)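 After 5 days of treatment, lung cancer cells in 1536-well plates were fixed and stained in a single step (final 0.05% Triton X-100, 1% formaldehyde, 1 ug/ml Hoechst) and their nuclei counted on 4× images. Treatment had been applied by pin tool the day after seeding as one drug alone or as a fixed anchor-drug dose with five library-drug doses (not always all listed) in √10 steps. Relative viability is the nuclei count of treated wells divided by that of vehicle wells, and values are medians of duplicate plates.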

[2] = system: NCI-H2087
Procedure, shortened: as §1

[3] = system: A-427
Procedure, shortened: as §1

[4] = system: ChaGo-K-1
Procedure, shortened: as §1

[5] = system: NCI-H1915
Procedure, shortened: as §1

[6] = system: NCI-H596
Procedure, shortened: as §1

[7] = system: NCI-H1734
Procedure, shortened: as §1

[8] = system: HCC-78
Procedure, shortened: as §1

[9] = system: HCC-366
Procedure, shortened: as §1

[10] = system: NCI-H650
Procedure, shortened: as §1

[11] = system: EPLC-272H
Procedure, shortened: as §1

[12] = system: HOP-62
Procedure, shortened: as §1

[13] = system: HCC-44
Procedure, shortened: as §1

[14] = system: NCI-H358
Procedure, shortened: as §1

[15] = system: NCI-H1395
Procedure, shortened: as §1

[16] = system: LOU-NH91
Procedure, shortened: as §1

[17] = system: NCI-H838
Procedure, shortened: as §1

[18] = system: NCI-H3122
Procedure, shortened: as §1

O=c1[nH]c2ccccc2n1C1CCN(CCCC(c2ccc(F)cc2)c2ccc(F)cc2)CC1 [Pimozide] + NC(=O)Nc1cc(-c2cccc(F)c2)sc1C(=O)N[C@H]1CCCNC1 [AZD7762] (partner 0.2 µM)
relative viability ([1]; first compound 0.253 µM): 0.711 | relative viability ([1]; first compound 0.8 µM): 0.618 | relative viability ([1]; first compound 2.53 µM): 0.749 | relative viability ([1]; first compound 8 µM): 0.592 | relative viability ([2]; first compound 0.08 µM): 1.27 | relative viability ([2]; first compound 0.253 µM): 1.31 | relative viability ([2]; first compound 2.53 µM): 1.22 | relative viability ([2]; first compound 8 µM): 1.25 | relative viability ([3]; first compound 0.08 µM): 0.711 | relative viability ([3]; first compound 0.253 µM): 0.703 | relative viability ([3]; first compound 0.8 µM): 0.764 | relative viability ([3]; first compound 2.53 µM): 0.637 | relative viability ([3]; first compound 8 µM): 0.676 | relative viability ([4]; first compound 0.08 µM): 0.914 | relative viability ([4]; first compound 0.253 µM): 0.871 | relative viability ([4]; first compound 0.8 µM): 0.88 | relative viability ([4]; first compound 2.53 µM): 0.803 | relative viability ([4]; first compound 8 µM): 0.824 | relative viability ([5]; first compound 0.08 µM): 0.661 | relative viability ([5]; first compound 0.253 µM): 0.61 | relative viability ([5]; first compound 2.53 µM): 0.674 | relative viability ([5]; first compound 8 µM): 0.718 | relative viability ([6]; first compound 0.08 µM): 1.17 | relative viability ([6]; first compound 0.253 µM): 1.31 | relative viability ([6]; first compound 0.8 µM): 1.31 | relative viability ([6]; first compound 2.53 µM): 1.19 | relative viability ([6]; first compound 8 µM): 1.04 | relative viability ([7]; first compound 0.08 µM): 0.573 | relative viability ([7]; first compound 0.253 µM): 0.558 | relative viability ([7]; first compound 0.8 µM): 0.487 | relative viability ([7]; first compound 2.53 µM): 0.511 | relative viability ([7]; first compound 8 µM): 0.485 | relative viability ([8]; first compound 0.08 µM): 0.547 | relative viability ([8]; first compound 0.8 µM): 0.607 | relative viability ([8]; first compound 2.53 µM): 0.55 | relative viability ([8]; first compound 8 µM): 0.6 | relative viability ([9]; first compound 0.08 µM): 0.263 | relative viability ([9]; first compound 0.253 µM): 0.258 | relative viability ([9]; first compound 0.8 µM): 0.211 | relative viability ([9]; first compound 2.53 µM): 0.246 | relative viability ([9]; first compound 8 µM): 0.253 | relative viability ([10]; first compound 0.08 µM): 1.17 | relative viability ([10]; first compound 0.253 µM): 0.983 | relative viability ([10]; first compound 0.8 µM): 0.831 | relative viability ([10]; first compound 2.53 µM): 0.909 | relative viability ([10]; first compound 8 µM): 0.693 | relative viability ([11]; first compound 0.08 µM): 0.229 | relative viability ([11]; first compound 0.253 µM): 0.163 | relative viability ([11]; first compound 0.8 µM): 0.265 | relative viability ([11]; first compound 2.53 µM): 0.289 | relative viability ([11]; first compound 8 µM): 0.282 | relative viability ([12]; first compound 0.08 µM): 0.634 | relative viability ([12]; first compound 0.253 µM): 0.477 | relative viability ([12]; first compound 2.53 µM): 0.661 | relative viability ([12]; first compound 8 µM): 0.517 | relative viability ([13]; first compound 0.08 µM): 1.01 | relative viability ([13]; first compound 0.253 µM): 0.992 | relative viability ([13]; first compound 0.8 µM): 0.849 | relative viability ([13]; first compound 2.53 µM): 0.98 | relative viability ([13]; first compound 8 µM): 0.971 | relative viability ([14]; first compound 0.08 µM): 0.565 | relative viability ([14]; first compound 0.253 µM): 0.67 | relative viability ([14]; first compound 0.8 µM): 0.625 | relative viability ([14]; first compound 2.53 µM): 0.508 | relative viability ([14]; first compound 8 µM): 0.505 | relative viability ([15]; first compound 0.08 µM): 0.369 | relative viability ([15]; first compound 0.253 µM): 0.42 | relative viability ([15]; first compound 0.8 µM): 0.417 | relative viability ([15]; first compound 2.53 µM): 0.389 | relative viability ([15]; first compound 8 µM): 0.394 | relative viability ([16]; first compound 0.08 µM): 0.713 | relative viability ([16]; first compound 0.253 µM): 0.746 | relative viability ([16]; first compound 0.8 µM): 0.776 | relative viability ([16]; first compound 2.53 µM): 0.778 | relative viability ([16]; first compound 8 µM): 0.778 | relative viability ([17]; first compound 0.08 µM): 0.937 | relative viability ([17]; first compound 0.253 µM): 0.946 | relative viability ([17]; first compound 0.8 µM): 0.908 | relative viability ([17]; first compound 2.53 µM): 0.938 | relative viability ([17]; first compound 8 µM): 0.966 | relative viability ([18]; first compound 0.08 µM): 0.977 | relative viability ([18]; first compound 0.253 µM): 0.882 | relative viability ([18]; first compound 0.8 µM): 0.963 | relative viability ([18]; first compound 2.53 µM): 1.05 | relative viability ([18]; first compound 8 µM): 0.825
